Tests used:
SHR-SP rats = conditions: administration before attack; cited from earlier work
[1] = test system: stroke-prone spontaneously hypertensive rats (SHR-SP); experiment: Cerebral stroke recurrence score (daily body weight change) after primary stroke attack in SHR-SP rats; assay type: in vivo, rat; conditions: vs control
Description: (§1) The dose was 3 and 30 mg/kg, and it was repeatedly orally administered once a day.
(§2) SHR-SP male rats (9-week age when bought, by Nippon SLC) were bred under a constant-temperature and constant-humidity condition. The feed was solid SP feed for breeding SHR-SP rats; and every rat was kept to freely drink tap water as automatically supplied thereto. The body weight of each rat was measured everyday, and the rats were checked for an cerebral stroke attack (Stroke, Vol. 20(9), pp. 1212-1218, 1989; Journal of Pharmacology & Experimental Therapeutics, Vol. 291(2), pp. 569-575, 1999). The cerebral stroke attack in the rats of this line is accompanied by neurologic symptoms such as paralysis or hemiplegia (European Journal of Pharmacology, Vol. 192 (1), pp. 165-167, 1991), and abnormal body weight change such as rapid body weight reduction. The abnormal body weight change may be considered to be caused by the deterred drinking and eating owing to the cerebral stroke attack (Brain Research, Vol. 452 (1-2), pp. 323-328, 1988; Stroke, Vol. 20(8), pp. 1089-1091, 1989; European Journal of Pharmacology, Vol. 192 (1), pp. 165-167, 1991).
(§3) A Steel test was used to the neurologic symptom and recurrence scores, and a Log-rank test was applied to the survival rate.

[2] = test system: stroke-prone spontaneously hypertensive rats (SHR-SP); experiment: Cerebral stroke recurrence-accompanied neurologic symptom score in SHR-SP rats; assay type: in vivo, rat
Text: Regarding the neurologic symptom, both the fore-legs and both the hind legs of a test case are checked for the paralysis and the activity depression as the items of the neurologic symptoms thereof, and they are scored depending on the degree of the symptoms. Concretely, according to a reference (European Journal of Pharmacology, 192, 165-167, 1991), they are normal state (score 0), light symptom (score 1), middle symptom (score 2) and heavy symptom (score 3); and the final data of an individual are the total of the scores of these items. The maximum score is 15.
as §1, §2
The rats were checked for their neurologic symptoms on the day the first stroke occurred and 7 and 14 days later by the modified method of Yamamoto (Brain Research, Vol. 452(1-2), pp. 323-328, 1988; Stroke, Vol. 20(8), pp. 1089-1091, 1989; European Journal of Pharmacology, Vol. 192(1), pp. 165-167, 1991). Both the fore-legs and both the hind legs of the rats were checked for the paralysis and the activity depression as the items of the neurologic symptoms thereof. […] The final data of the individual rat are the total of the scores of these items. The maximum score is 15.
as §3

[3] = test system: stroke-prone spontaneously hypertensive rats (SHR-SP); experiment: Survival rate after onset of the stroke in SHR-SP rats; assay type: in vivo, rat; conditions: for survival rate: control 3/28 (10.7%)
Description: as §1, §2
Vehicle or atorvastatin was orally administered everyday, once a day from day of the first stroke to death.
as §3

[4] = test system: stroke-prone spontaneously hypertensive rats (SHR-SP); experiment: Blood pressure, heart beat and total cholesterol level in SHR-SP rats after primary stroke attack; assay type: in vivo, rat; conditions: administration groups (3 and 30 mg/kg/day), within 2 weeks after the primary cerebral stroke attack
[5] = test system: hypertension cases or CHD-having cases; conditions: cited from earlier work
eNOS = conditions: cited from earlier work
[6] = 3 mg/kg/day p.o., day 14 after the primary cerebral stroke attack, Steel test
[7] = 30 mg/kg/day p.o., day 7 after the primary cerebral stroke attack
[8] = 30 mg/kg/day p.o., day 14 after the primary cerebral stroke attack, Steel test

| Compound | prevention of cerebral stroke attack (SHR-SP rats) | survival rate (SHR-SP rats) | cerebral stroke recurrence symptoms (recurrence score) [1, 6] | cerebral stroke recurrence symptoms (recurrence score) [1, 7] | cerebral stroke recurrence symptoms (recurrence score) [1, 8] | neurologic symptoms (score) ([2]; 3 mg/kg/day p.o., day 7 after the primary cerebral stroke attack) | neurologic symptoms (score) [2, 6] | level of neurologic symptoms reached ([2]; 30 mg/kg administration group, day 14 after the primary cerebral stroke attack) | neurologic symptoms (score) [2, 7] | neurologic symptoms (score) [2, 8] | survival rate ([3]; 3 mg/kg/day p.o., day 35 after the primary cerebral stroke attack (6/29)) | improvement of survival rate vs control, Log-rank test ([3]; 30 mg/kg/day p.o.) | survival rate ([3]; 30 mg/kg/day p.o., day 35 after the primary cerebral stroke attack (8/24)) | diastolic pressure vs control group [4] | heart beat vs control group [4] | mean blood pressure vs control group [4] | systolic pressure vs control group [4] | total cholesterol level vs control group [4] | primary preventive effect for cerebral stroke [5] | eNOS activity (eNOS) |
| --- | --- | --- | --- | --- | --- | --- | --- | --- | --- | --- | --- | --- | --- | --- | --- | --- | --- | --- | --- | --- |
| COCc1c(C(C)C)nc(C(C)C)c(/C=C/[C@@H](O)C[C@@H](O)CC(=O)O)c1-c1ccc(F)cc1 [serivastatin] | effective for prevention of cerebral stroke attack | effective for increasing a survival rate |  |  |  |  |  |  |  |  |  |  |  |  |  |  |  |  |  |  |
| CC(C)c1c(C(=O)Nc2ccccc2)c(-c2ccccc2)c(-c2ccc(F)cc2)n1CC[C@@H](O)C[C@@H](O)CC(=O)O [atorvastatin, (-)-(3R,5R)-7-[2-(4-fluorophenyl)-5-isopropyl-3-phenyl-4-phenylcarbamoyl-1H-pyrrol-1-yl]-3,5-dihydroxyheptanoic acid] |  |  | significant improvement | improved symptoms | significant improvement | improved | significant improvement | restored nearly to the ordinary level | improved | significant improvement | 20.7% | significant difference | 33.3% | no significant difference | no significant difference | no significant difference | no significant difference | no significant difference | effective for preventing a primary cerebral stroke | increases eNOS activity |

From patent US20070043105A1, “Preventive for cerebal stroke recurrence” (ASTELLAS PHARMA INC., priority 2003, published 2007)
